# Measurements published in patent US9315545B2, “Hepcidin mimetic peptides and uses thereof” (MERGANSER BIOTECH, INC., priority 2014, dated 2016).
# “Also recorded” adds a separate entry of the source.
# How the values were obtained:
# [1] = Stability of Compound 1 pH 6 formulations at 40° C. with antioxidants (HPLC % AUC); format: physicochemical
# Protocol: Initially the stability of Compound 1 was previously characterized and there was significant degradation observed by HPLC after about 24 hours at 40° C. […] The effect of various antioxidants and thiol scavengers that might be used in a medicament were studied.
# [2] = Stability in sodium acetate buffer pH 6 at two temperatures, reversed-phase HPLC; format: physicochemical
# Protocol: Three other compounds were also tested, Compound 2, Compound 3, and Compound 4. Compounds 2, 3, and 4 are modifications of Compound 1 at the sidechain of Cysteine 7. Compound 2 has a disulfide bond attached to Cysteine 7, Compound 3 has thioester bond attached to Cysteine 7, and Compound 4 has an ethyl group attached to the sidechain sulfur of Cysteine 7. The peptides were incubated in sodium acetate buffer pH 6 at two temperature conditions and then analyzed via reversed-phase HPLC. The chromatography performed was with an Ascentis Phenyl 2.7 micron column (4.6×150 mm). The binary gradient (1 ml/min) was 36% to 56% B in 40 minutes followed by an increase to 65% B in 5 minutes where A=0.1% trifluoroacetic acid in water and B=0.1% trifluoroacetic acid in acetonitrile.
# [3] = In vitro stability of compounds in rat plasma (37° C.); format: in vitro ADME
# Protocol: The in vitro stability of Compounds 1-4 in rat plasma at 37° C. was examined to give an indication of stability in a whole animal model (Table 6).
# [4] = Compound blood levels after subcutaneous administration in the rat (LC/MS); format: in vivo; settings: 7.5 mg/kg
# Protocol: (§1) Compounds 1-4 were tested in rats to determine compound pharmacokinetics and hepcidin mimetic activity in vivo as measured by serum iron reduction. The effectiveness of the compounds for serum iron reduction should correlate with the treatment of iron metabolism disorders. Individual compounds, in this example and the following examples were generally formulated in DSPE-PEG(2000) (SUNBRIGHT® DSPE-020CN, NOF America Corporation) (30 mg/mL) and dosed subcutaneously at a compound dose of 7.5 mg/kg.
# (§2) The compound was prepared according to the following typical preparation. The dosing solution was prepared (7.5 mg compound/mL in clear solution) by weighing the compound into vial and an aliquot of ethanol is added into the vial and mixture vortexed. DSPE-020CN was added and the solution was vortexed, and, if necessary, the mixture was heated at 37° C. for 10-15 minutes to fully dissolve the DSPE-020CN. The ethanol was evaporated with nitrogen gas stream for 1-3 hours. Sterile water was then added and the mixture was vortexed or, if necessary, sonicated to give a clear solution.
# After subcutaneous injection compound quantities in blood were measured over the subsequent 24 hours via LC/MS.
# [5] = system: serum iron; experiment: Serum iron reduction after subcutaneous administration in the rat (hepcidin mimetic activity); format: in vivo; settings: 7.5 mg/kg
# Protocol: as §1, §2
# Serum iron was measured during the 24 h following subcutaneous administration in a rat of Compounds 1-4 and is summarized in FIG. 1. […] The observed effects on serum iron were unexpectedly similar in Compounds 1-3 despite the differences at Cysteine 7 and the differences in blood levels of the compounds (Table 7).
# [6] = format: physicochemical
# Protocol: Compound 5, which has the same disulphide block of the reactive cysteine as Compound 2 was also evaluated in stability studies over a 4 week period in 50 mM Na Acetate pH 5 at different temperatures.
# [7] = format: physicochemical; settings: HCl (0.01%), 40° C.
# [8] = physchem; format: physicochemical
# Protocol: Different solvent compositions with different properties that are commonly used as a basis for pharmaceutical compositions were added to known quantities of the indicated compound and mixed. If a clear solution was not obtained, additional solvent was added and the solution mixed. […] For example “50-100” would indicate that the compound was not soluble at 100 mg/mL but upon additional solvent to have a final concentration of 50 mg/mL, the compound was soluble.
# [9] = format: physicochemical; remark: listed apart in the source
# Protocol: An additional critical aspect in drug delivery is retention of solubility with time (physical stability), especially under refrigerated conditions. […] Unexpectedly, clear differences in physical stability were observed between Compound 5 and other compounds with only minor changes in sequence (e.g. Compounds 7 and 8). The combination of unexpected solubility of greater than 100 mg/mL in mildly acidic conditions and lack of significant changes in solution character after refrigeration, are unexpected and advantageous for a pharmaceutical product.
smiles,measurement,setting,value
"CCCCCCCCCCCCCCCCNC(=O)CN(CC(N)=O)C(=O)CCCCCNC(=O)C(Cc1c[nH]c2ccccc12)NC(=O)C(CCCNC(=N)N)NC(=O)C(CS)NC(=O)C(CCCNC(=N)N)NC(=O)CC1CCCN1C(=O)C(NC(=O)C(Cc1c[nH]cn1)NC(=O)C(NC(=O)CNCC(=O)O)C(C)O)C(c1ccccc1)c1ccccc1 (stereo not shown) [Compound 1, reference compound]",main peak (% AUC) lost,"[1]; after about 24 hours at 40° C., no antioxidant",90%
same,Difference (%) (T24 − T0),"[1]; pH 6 formulation, antioxidant 10 mM or none, 40° C.",−90%
same,"Main peak % AUC, T0","[1]; pH 6 formulation, antioxidant 10 mM or none, 40° C., T0",94.4 % AUC
same,"Main peak % AUC, T ~24 hours","[1]; pH 6 formulation, antioxidant 10 mM or none, 40° C., ~24 hours",~4.0 (estimated) % AUC
same,significant degradation peaks observed by HPLC,[2],a single major peak
same,degradation after 18 hours at 40° C. (in words),"[2]; 18 hours, 40° C.",almost completely degraded
same,"% Purity of the Compound, 6 Hours 25° C.","[2]; sodium acetate buffer pH 6, 6 hours, 25° C.",58.9%
same,"% Purity of the Compound, 6 Hours 40° C.","[2]; sodium acetate buffer pH 6, 6 hours, 40° C.",11.9%
same,"Change in Main Peak % Area After 18 H Incubation, 40° C.","[2]; sodium acetate buffer pH 6, 18 h, 40° C.",−95-100%
same,"% Purity of the Compound, 18 Hours 40° C.","[2]; sodium acetate buffer pH 6, 18 hours, 40° C.",<5%
same,"% Purity of the Compound, Initial","[2]; sodium acetate buffer pH 6, initial",96.9%
same,In vitro plasma stability (Ratio of compound/benfluorex (std) degradation),"[3]; rat plasma, 37° C.",0.41
same,half-life,"[3]; rat plasma, 37° C., read-out: In vitro plasma stability (T ½)",23 min
same,AUC(0-t),"[4]; sc, subcutaneous, blood, dosed compound itself, read-out: AUC(0-24) (hr*ng/mL, mean ± SD)",2750 ng·h/mL
same,blood levels of the dosed compound (in words),[4]; subcutaneous,remains little changed out to at least 24 hours
same,reduction in serum iron (in words),[5],significant drop in serum iron level
CCCCCCCCCCCCCCCCNC(=O)CN(CC(N)=O)C(=O)CCCCCNC(=O)C(Cc1c[nH]c2ccccc12)NC(=O)C(CCCNC(=N)N)NC(=O)C(CSSC)NC(=O)C(CCCNC(=N)N)NC(=O)C1CCCN(C(=O)C(NC(=O)C(Cc2c[nH]cn2)NC(=O)C(NC(=O)CNCC(=O)O)C(C)O)C(c2ccccc2)c2ccccc2)C1 (stereo not shown) [Compound 5],"% Purity, Week 0, 2-8° C.","[6]; 50 mM NaAcetate pH 5, week 0, 2-8° C.",96.9%
same,"% Purity, Week 0, 25° C.","[6]; 50 mM NaAcetate pH 5, week 0, 25° C.",96.9%
same,"% Purity, Week 1, 2-8° C.","[6]; 50 mM NaAcetate pH 5, week 1, 2-8° C.",96.8%
same,"% Purity, Week 1, 25° C.","[6]; 50 mM NaAcetate pH 5, week 1, 25° C.",96.8%
same,"% Purity, Week 2, 2-8° C.","[6]; 50 mM NaAcetate pH 5, week 2, 2-8° C.",96.8%
same,"% Purity, Week 2, 25° C.","[6]; 50 mM NaAcetate pH 5, week 2, 25° C.",96.3%
same,"% Purity, Week 4, 2-8° C.","[6]; 50 mM NaAcetate pH 5, week 4, 2-8° C.",96.7%
same,"% Purity, Week 4, 25° C.","[6]; 50 mM NaAcetate pH 5, week 4, 25° C.",96.1%
same,"% Purity, Day 0",[7]; day 0,97.1%
same,"% Purity, Day 7",[7]; day 7,96.8%
same,"in vitro plasma stability, comparison in words",[3],even greater than that for Compound 2
same,blood levels of the dosed compound (in words),"[4]; in vivo, sc",surprisingly higher blood levels relative to the other compounds
same,duration of serum iron reduction compared with Compound 2,[5],longer effect
same,reduction in serum iron (in words),[5],retained significant hepcidin activity; also recorded: comparable activity
same,solubility characteristics compared to the other compounds (in words),[8],unexpectedly superior solubility characteristics
same,solubility,"[8]; Solubility (mg/mL) at Ambient Temperature, 30% PEG 400",50 to 100 mg/mL
same,solubility,"[8]; Solubility (mg/mL) at Ambient Temperature, 50% EtOH/water",> 100 mg/mL
same,solubility,"[8]; Solubility (mg/mL) at Ambient Temperature, Water",> 100 mg/mL
same,solubility,"[8]; pH 2.3, Solubility (mg/mL) at Ambient Temperature, 10% Tween 80 pH 2.3-2.8",> 200 mg/mL
same,solubility,"[8]; pH 2.7, Solubility (mg/mL) at Ambient Temperature, 50% propylene glycol, pH 2.7",50 to 100 mg/mL
same,change of solubility with pH (in words),[8]; pH 4,no such significant change in solubility with pH
same,solubility,"[8]; pH 4.5, Solubility (mg/mL) at Ambient Temperature, 10% Tween 80 pH 4.5-5.0",> 100 mg/mL
same,solubility,"[8]; pH 5, Solubility (mg/mL) at Ambient Temperature, 2% Tween 80 pH 5",> 100 mg/mL
same,solubility,"[8]; pH 5.5, Solubility (mg/mL) at Ambient Temperature, 10% Tween 80 pH 5.5-6.0",> 100 mg/mL
same,solubility,"[8]; pH 6.4, Solubility (mg/mL) at Ambient Temperature, 2% Tween pH 6.4",> 44 mg/mL
same,solubility,[8]; solubility in mildly acidic conditions,> 100 mg/mL
same,physical stability under refrigerated conditions (in words),[9],no changes in solution solubility or solution characteristics
